Measured values from US6355799B1, “Substituted benzene compounds, process for their preparation, and herbicidal and defoliant compositions containing them” (ISK Americas Incorporated, priority 1997, dated 2002).

Experiments:
Format in all cases: in vivo
[1] = test system: large crabgrass (Digitaria sanguinalis, DIGSA); experiment: Post-emerge test, greenhouse herbicide activity screening; settings: post-emerge, 14 days after application, rating scale 0-100
Procedure, shortened: (§1)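 Compounds in acetone were track-sprayed at 187 l/ha, 15–1000 g ai/ha, onto sandy loam pots. Pre-emerge seeds were sown one day before spraying, with surface watering afterwards. Post-emerge plants were at the 2–3 leaf stage and sprayed with 0.25% v/v non-ionic surfactant. Injury was rated 0–100 at 14 days.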

[2] = test system: velvetleaf (Abutilon theophrasti, ABUTH); experiment: as above; settings: post-emerge, 14 days after application, rating scale 0-100
Procedure, shortened: as §1

[3] = test system: redroot pigweed (Amaranthus retroflexus, AMARE); experiment: as above; settings: post-emerge, 14 days after application
Procedure, shortened: as §1

[4] = test system: sicklepod (Cassia obtusifolia, CASOB); experiment: as above; settings: post-emerge, 14 days after application, rating scale 0-100
Procedure, shortened: as §1

[5] = test system: barnyardgrass (Echinochloa crus-galli, ECHCG); experiment: as above; settings: post-emerge, 14 days after application, rating scale 0-100
Procedure, shortened: as §1

[6] = test system: ivyleaf morningglory (Ipomoea hederacea, IPOHE); experiment: as above; settings: post-emerge, 14 days after application, rating scale 0-100
Procedure, shortened: as §1

[7] = test system: johnsongrass (Sorghum halepense, SORHA); experiment: as above; settings: post-emerge, 14 days after application, rating scale 0-100
Procedure, shortened: as §1

[8] = test system: lambsquarters (Chenopodium album, CHEAL); experiment: as above; settings: post-emerge, 14 days after application, rating scale 0-100
Procedure, shortened: as §1

[9] = test system: green foxtail (Setaria viridis, SETVI); experiment: as above; settings: post-emerge, 14 days after application, rating scale 0-100
Procedure, shortened: as §1

[10] = test system: large crabgrass (Digitaria sanguinalis, DIGSA); experiment: Pre-emerge test, greenhouse herbicide activity screening; settings: pre-emerge, 14 days after application, rating scale 0-100
Procedure, shortened: (§2)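 Visual ratings on a 0-100 scale (0 no damage, 100 all plants dead) were taken at 14 days after treatment. Rates of 15-1000 g ai/ha in acetone, 187 l/ha, were sprayed onto soil one day after planting (pre-emerge) or onto 2-3 leaf plants with 0.25% v/v surfactant (post-emerge).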

[11] = test system: velvetleaf (Abutilon theophrasti, ABUTH); experiment: as above; settings: pre-emerge, 14 days after application, rating scale 0-100
Procedure, shortened: as §2

[12] = test system: sicklepod (Cassia obtusifolia, CASOB); experiment: as above; settings: pre-emerge, 14 days after application, rating scale 0-100
Procedure, shortened: as §2

[13] = test system: barnyardgrass (Echinochloa crus-galli, ECHCG); experiment: as above; settings: pre-emerge, 14 days after application, rating scale 0-100
Procedure, shortened: as §2

[14] = test system: ivyleaf morningglory (Ipomoea hederacea, IPOHE); experiment: as above; settings: pre-emerge, 14 days after application, rating scale 0-100
Procedure, shortened: as §2

[15] = test system: johnsongrass (Sorghum halepense, SORHA); experiment: as above; settings: pre-emerge, 14 days after application, rating scale 0-100
Procedure, shortened: as §2

[16] = test system: lambsquarters (Chenopodium album, CHEAL); experiment: as above; settings: pre-emerge, 14 days after application, rating scale 0-100
Procedure, shortened: as §2

[17] = test system: green foxtail (Setaria viridis, SETVI); experiment: as above; settings: pre-emerge, 14 days after application, rating scale 0-100
Procedure, shortened: as §2

[18] = test system: redroot pigweed (Amaranthus retroflexus, AMARE); experiment: as above; settings: pre-emerge, 14 days after application, rating scale 0-100
Procedure, shortened: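 Herbicidal damage is scored 0 (none) to 100 (complete plant death) two weeks after a simulated field spray. Rates span 15–1000 g ai/ha, delivered in acetone at 187 l/ha. For post-emergence treatments, plants have 2–3 leaves and the spray carries 0.25% v/v non-ionic surfactant.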

[19] = test system: field corn (Zea mays L., var. Dekalb 535, CORN); experiment: Pre-emerge test, crop safety; settings: pre-emerge, 14 days after application, rating scale 0-100
Procedure, shortened: (§3)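 Fourteen days after spraying, crop and weed injury was graded visually from 0, no effect, to 100, every plant dead. Test substances were dissolved in acetone and applied at 15–1000 g ai/ha with a flat-fan nozzle. Application was either pre-emergence, one day after sowing, or post-emergence at the 2–3 leaf stage.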

[20] = test system: upland rice (Oryza sp., var. Tebonnet, RICE); experiment: Pre-emerge test, crop safety; settings: pre-emerge, 14 days after application, rating scale 0-100
Procedure, shortened: as §3

[21] = test system: field corn (Zea mays L., var. Dekalb 535, CORN); experiment: Post-emerge test, crop safety; settings: post-emerge, 14 days after application, rating scale 0-100
Procedure, shortened: as §2

[22] = test system: upland rice (Oryza sp., var. Tebonnet, RICE); experiment: Post-emerge test, crop safety; settings: post-emerge, 14 days after application, rating scale 0-100
Procedure, shortened: as §2

[23] = 63 g ai/ha, rating scale 0-100 (0 no damage, 100 complete death)
[24] = 250 g ai/ha, rating scale 0-100

COc1c(Cl)cc(F)c(-n2c(=O)cc(C(F)(F)F)n(C)c2=O)c1NN=CC1CC1 [Compound 15-11]
Post-emerge Herbicidal Activity DIGSA (phytotoxicity rating) ([1]; 63 g ai/ha): 50 | Post-emerge Herbicidal Activity DIGSA (phytotoxicity rating) ([1]; 250 g ai/ha): 95 | Post-emerge Herbicidal Activity ABUTH (phytotoxicity rating) ([2]; 63 g ai/ha): 100 | Post-emerge Herbicidal Activity ABUTH (phytotoxicity rating) ([2]; 250 g ai/ha): 100 | Post-emerge Herbicidal Activity AMARE (phytotoxicity rating) [3, 23]: 95 | Post-emerge Herbicidal Activity AMARE (phytotoxicity rating) [3, 24]: 100 | Post-emerge Herbicidal Activity CASOB (phytotoxicity rating) ([4]; 63 g ai/ha): 90 | Post-emerge Herbicidal Activity CASOB (phytotoxicity rating) ([4]; 250 g ai/ha): 100 | Post-emerge Herbicidal Activity ECHCG (phytotoxicity rating) ([5]; 63 g ai/ha): 50 | Post-emerge Herbicidal Activity ECHCG (phytotoxicity rating) ([5]; 250 g ai/ha): 99 | Post-emerge Herbicidal Activity IPOHE (phytotoxicity rating) ([6]; 63 g ai/ha): 100 | Post-emerge Herbicidal Activity IPOHE (phytotoxicity rating) ([6]; 250 g ai/ha): 100 | Post-emerge Herbicidal Activity SORHA (phytotoxicity rating) ([7]; 63 g ai/ha): 50 | Post-emerge Herbicidal Activity SORHA (phytotoxicity rating) ([7]; 250 g ai/ha): 99 | Post-emerge Herbicidal Activity CHEAL (phytotoxicity rating) ([8]; 63 g ai/ha): 100 | Post-emerge Herbicidal Activity CHEAL (phytotoxicity rating) ([8]; 250 g ai/ha): 100 | Post-emerge Herbicidal Activity SETVI (phytotoxicity rating) ([9]; 63 g ai/ha): 40 | Post-emerge Herbicidal Activity SETVI (phytotoxicity rating) ([9]; 250 g ai/ha): 80 | phytotoxicity rating DIGSA ([10]; 63 g ai/ha): 100 | phytotoxicity rating DIGSA ([10]; 250 g ai/ha): 100 | phytotoxicity rating ABUTH ([11]; 63 g ai/ha): 100 | phytotoxicity rating ABUTH ([11]; 250 g ai/ha): 100 | phytotoxicity rating CASOB ([12]; 63 g ai/ha): 100 | phytotoxicity rating CASOB ([12]; 250 g ai/ha): 100 | phytotoxicity rating ECHCG ([13]; 63 g ai/ha): 100 | phytotoxicity rating ECHCG ([13]; 250 g ai/ha): 100 | phytotoxicity rating IPOHE ([14]; 63 g ai/ha): 100 | phytotoxicity rating IPOHE ([14]; 250 g ai/ha): 100 | phytotoxicity rating SORHA ([15]; 63 g ai/ha): 100 | phytotoxicity rating SORHA ([15]; 250 g ai/ha): 100 | phytotoxicity rating CHEAL ([16]; 63 g ai/ha): 100 | phytotoxicity rating CHEAL ([16]; 250 g ai/ha): 100 | phytotoxicity rating SETVI ([17]; 63 g ai/ha): 100 | phytotoxicity rating SETVI ([17]; 250 g ai/ha): 100 | phytotoxicity rating AMARE ([18]; 63 g ai/ha): 100 | phytotoxicity rating AMARE ([18]; 250 g ai/ha): 100 | phytotoxicity rating CORN ([19]; 63 g ai/ha): 100 | phytotoxicity rating CORN ([19]; 250 g ai/ha): 100 | phytotoxicity rating RICE ([20]; 63 g ai/ha): 100 | phytotoxicity rating RICE ([20]; 250 g ai/ha): 100 | Post-emerge Herbicidal Activity CORN (crop damage rating) ([21]; 63 g ai/ha): 45 | Post-emerge Herbicidal Activity CORN (crop damage rating) ([21]; 250 g ai/ha): 85 | Post-emerge Herbicidal Activity RICE (crop damage rating) ([22]; 63 g ai/ha): 65 | Post-emerge Herbicidal Activity RICE (crop damage rating) ([22]; 250 g ai/ha): 99

COc1c(Cl)cc(F)c(-n2c(=O)cc(C(F)(F)F)n(C)c2=O)c1SC [Compound 17-1, 3-(4-chloro-6-fluoro-3-methoxy-2-thiomethylphenyl)l-methyl-6-trifluoromethyl-2,4(1H, 3H)-pyrimidinedione]
Post-emerge Herbicidal Activity DIGSA (phytotoxicity rating) ([1]; 63 g ai/ha): 0 | Post-emerge Herbicidal Activity DIGSA (phytotoxicity rating) ([1]; 250 g ai/ha): 0 | Post-emerge Herbicidal Activity ABUTH (phytotoxicity rating) ([2]; 63 g ai/ha): 70 | Post-emerge Herbicidal Activity ABUTH (phytotoxicity rating) ([2]; 250 g ai/ha): 70 | Post-emerge Herbicidal Activity AMARE (phytotoxicity rating) [3, 23]: 10 | Post-emerge Herbicidal Activity AMARE (phytotoxicity rating) [3, 24]: 30 | Post-emerge Herbicidal Activity CASOB (phytotoxicity rating) ([4]; 63 g ai/ha): 20 | Post-emerge Herbicidal Activity CASOB (phytotoxicity rating) ([4]; 250 g ai/ha): 10 | Post-emerge Herbicidal Activity ECHCG (phytotoxicity rating) ([5]; 63 g ai/ha): 0 | Post-emerge Herbicidal Activity ECHCG (phytotoxicity rating) ([5]; 250 g ai/ha): 0 | Post-emerge Herbicidal Activity IPOHE (phytotoxicity rating) ([6]; 63 g ai/ha): 80 | Post-emerge Herbicidal Activity IPOHE (phytotoxicity rating) ([6]; 250 g ai/ha): 80 | Post-emerge Herbicidal Activity SORHA (phytotoxicity rating) ([7]; 63 g ai/ha): 0 | Post-emerge Herbicidal Activity SORHA (phytotoxicity rating) ([7]; 250 g ai/ha): 0 | Post-emerge Herbicidal Activity CHEAL (phytotoxicity rating) ([8]; 63 g ai/ha): 30 | Post-emerge Herbicidal Activity CHEAL (phytotoxicity rating) ([8]; 250 g ai/ha): 60 | Post-emerge Herbicidal Activity SETVI (phytotoxicity rating) ([9]; 63 g ai/ha): 0 | Post-emerge Herbicidal Activity SETVI (phytotoxicity rating) ([9]; 250 g ai/ha): 0 | phytotoxicity rating DIGSA ([10]; 63 g ai/ha): 20 | phytotoxicity rating DIGSA ([10]; 250 g ai/ha): 80 | phytotoxicity rating ABUTH ([11]; 63 g ai/ha): 95 | phytotoxicity rating ABUTH ([11]; 250 g ai/ha): 100 | phytotoxicity rating CASOB ([12]; 63 g ai/ha): 0 | phytotoxicity rating CASOB ([12]; 250 g ai/ha): 80 | phytotoxicity rating ECHCG ([13]; 63 g ai/ha): 0 | phytotoxicity rating ECHCG ([13]; 250 g ai/ha): 70 | phytotoxicity rating IPOHE ([14]; 63 g ai/ha): 10 | phytotoxicity rating IPOHE ([14]; 250 g ai/ha): 70 | phytotoxicity rating SORHA ([15]; 63 g ai/ha): 0 | phytotoxicity rating SORHA ([15]; 250 g ai/ha): 60 | phytotoxicity rating CHEAL ([16]; 63 g ai/ha): 90 | phytotoxicity rating CHEAL ([16]; 250 g ai/ha): 100 | phytotoxicity rating SETVI ([17]; 63 g ai/ha): 50 | phytotoxicity rating SETVI ([17]; 250 g ai/ha): 80 | phytotoxicity rating AMARE ([18]; 63 g ai/ha): 30 | phytotoxicity rating AMARE ([18]; 250 g ai/ha): 90 | phytotoxicity rating CORN ([19]; 63 g ai/ha): 0 | phytotoxicity rating CORN ([19]; 250 g ai/ha): 10 | phytotoxicity rating RICE ([20]; 63 g ai/ha): 10 | phytotoxicity rating RICE ([20]; 250 g ai/ha): 30 | Post-emerge Herbicidal Activity CORN (crop damage rating) ([21]; 63 g ai/ha): 0 | Post-emerge Herbicidal Activity CORN (crop damage rating) ([21]; 250 g ai/ha): 5 | Post-emerge Herbicidal Activity RICE (crop damage rating) ([22]; 63 g ai/ha): 0 | Post-emerge Herbicidal Activity RICE (crop damage rating) ([22]; 250 g ai/ha): 0
